Data reported in patent US5935982A, “Methods of treating retroviral infection and compounds useful therefor” (The University of North Carolina at Chapel Hill, priority 1997, dated 1999).
pIC50: −log10 of the molar value.

Legend:
in vitro = format: cell-based; details: human, cem and magic cells
Procedure: (§1) Cell lines used were CEM cells, a human T-cell lymphona cell line, A. Kaplan et al, J. Virol. 67:4050-5 (1993), and Magic cells, J. Kimpton et al, J. Virol. 66:2232 (1992). The CEM cells were grown in RPMI-1640 medium supplemented with 5% FCS. The Magic Cells, a HELA derivative, were grown in DMEM/H supplemented with 5% FCS, G418 (20 mg/ml) and Hygromycin (10 mg/ml). The HIV isolate was strain HXB2, originally from Lee Ratner in the laboratory of Robert Gallo at the National Institutes of Health.
Three different toxicity tests were performed on the cell lines used to measure virus infectivity.
The initial test for toxicity utilized the XTT Assay as described by Weislow et al, J. Natl. Cancer Inst. 81:577 (1989). This is the standard assay used originally to measure cell toxicity by potential reverse transcriptase inhibitors. Briefly, cells were grown to cells/ml and drug dilutions were added to the medium. After two days incubation, XTT reagent is added and incubation is continued for 4 hours at 37° C. Following incubation, the plates are read at 450 minus 650 nm (the 650 value is the backround value which is automatically subtracted) with controls of media+XTT reagent without cells, and cells+media without reagent. Also a control of cells+media+XTT reagent was run for each plate. Medium without phenol red was employed to minimize background color as the XTT reagent goes from colorless (unreduced) to orange (reduced). The XTT reagent was freshly prepared on the day of assay as follows: 1 mg/ml of XTT in 0.01M phenazine methosulfate. The phenazine methosulfate solution was prepared ahead of time and stored at 4° C. in a dark bottle. The XTT reagent is added to the microtiter wells at 24 ul per 100 ul of medium. The O.D. was measured on a Vmax plate reader from Molecular Devices Co. with data reduction. Results are expressed as percent of untreated controls. The least toxic compounds were Compounds A, B, and F with toxicities values at 500 μM or greater.
Next, a plating efficiency test measured the ability of the cell to grow after incubation with drug for a number of days. Magic cells were grown from an initial cell concentration of 0.8×104 with or without various concentrations of test compound for 6 days. Plating ability of the cells was assessed by plating dilutions of each culture on plastic. Colony forming units were determined after growth for two to four days by counting colonies after staining the plates. Each sample was plated in duplicate and the colony number averaged.
The third test for cell toxicity assessed growth rate in the presence of the test compound versus a control culture. Magic cells were grown over a period of 15 days with or without various dilutions of test compound. Aliquots were removed every other day and the cells were counted in a hemocytometer.

HIV-1 integrase = target: T1, HIV-1 integrase (Human immunodeficiency virus type 1 group M subtype B, UniProt P04585); assay: Integrase inhibition assay (site-specific cleavage/joining of labeled oligonucleotide substrate); format: biochemical, HIV-1 (HXB2 clone); details: initial screening at 10 μM; assay in duplicate
T1 construct: using the integrase coding domain from the HXB2 clone; made in house; host or cells: E. coli
Procedure: Purification of Integrase Protein. Integrase was overproduced in E. coli from an inducible plasmid containing the integrase sequence under control of a lacI-regulated T7 polymerase using the integrase coding domain from the HXB2 clone of HIV-1 DNA (L. Ratner et al, AIDS Res. Hum. Retroviruses 3:57 (1987)), pT7fl1-IN. A one liter culture at an O.D. of 0.6 was induced by the addition of IPTG to 0.5 mM. After three hours, the cells were harvested by centrifugation and the pellets were stored at -70° C.
The integrase protein was purified by a modification of the method of Sherman and Fyfe, Proc. Natl. Acad. Sci. USA 87:5119 (1990). The cells were lysed by thawing in a buffer (50 mM Tris-HCl pH 7.5, 5 mM dithiothreitol, 1 mM EDTA, 1 mg/ml lysozyme) on ice at 6 ml/g bacterial pellet for 30 minutes, and then incubating at 37° C. for 5 minutes. The lysate was centrifuged at 12,000×g for one hour. The pellets were resuspended in 50 mM Tris-HCl, pH 7.5, 1 mM dithiothreitol, 1 mM EDTA, 1M NaCl (4 ml/g original bacteria). The homogenate was stirred for 30 minutes at 4° C. and recentrifuged for 30 minutes at 12,000×g.
The supernatant was made 0.8M in ammonium sulfate by the slow addition of powder with stirring over a 30 minute period. The extract was then centrifuged to remove any precipitate and applied to a phenyl sepharose column. After a 50 ml wash with high salt buffer (50 mM Tris-HCl, 1 mM EDTA, 5 mM DTT, 2M NaCl), the protein was eluted with a gradient from high salt to O salt buffer containing 10% (weight/vol) glycerol and further purified through a G75 Sephadex column to remove background nuclease. A one liter culture generates enough integrase activity to perform over a thousand drug inhibition assays. […]
Cleavage of specific sites is assessed as described in Sherman et al., supra, except that the assay buffer was the same as that reported by Chow et al, Science 255:723 (1992). The substrate employed is the same as that described for use in the dumbell assay described in Chow et al., J. Virol. 68:7869 (1994), the disclosure of which is incoroprated herein by reference in its entirety. Essentially, the assay is performed with an oligonucleotide of 31 nucleotides that is self-annealing to form a dumbell shape with a nick therein. This substrate mimics the integrated virus and is specifically recognized by integrase to release 2 fragments. When the substrate is end-labeled with γ^32 P-ATP and T4 polynucleotide kinase, and treated with integrase protein, the product is site-specific cleavage of the substrate to form a very different molecular weight when electrophoresed on a denaturing polyacrylamide gel. This allows the reaction to be more easily quantitated with the phosphorimager. This assay represents the step of the integrase reaction where integrase completes its action. The IC50 value reported in Table 1 is generated by regression analysis of the percent control reaction with integrase at various drug concentrations. Initial screening of the compounds was performed at a constant 10 μM concentration for each test compound. Those with activity at 10 μM, were then used to identify IC50 values.
The other assay used consisted of the single 20 mer oligonucleotides corresponding to either the U5 or U3 ends of HIV-1 are end-labeled with ^32 P, annealed with its complement, purified, and used under the same conditions as described above for the endonuclease assay. Reaction products are denatured with formamide, electrophoresed through 20% denaturing polyacrylamide gels and visualized by autoradiography. Both cleavage and ligation activity can be assessed from one gel. To assess the ligation activity alone, "precleaved" substrate that had the -2 cleavage artificially produced by using a radiolabelled 18 mer oligonucleotide was also used for some experiments
Testing as Integrase Inhibitors. Integrase overproduced in E. coli was purified as described above in accordance with Sherman et al, supra, and used in drug inhibition assays. […]

HIV-1 = HIV-1 inhibition assay in magic (magi) cells, β-galactosidase expressing cells counted; format: cell-based, HIV-1 strain HXB2; details: for pIC50: Human immunodeficiency virus 1, MAGI, magic cells, HIV-1, drug pretreatment 4 hours, fixed two days later, read-out: Anti-HIV IC50; for Index TD50/IC50: ratio of toxicity TD50 to anti-HIV IC50
Procedure: as §1
The magi cell assay described by Kimpton et al., supra, was used as described. This assay identifies individual cells infected with HIV-1 by the expression of tat, which transactivates an endogenous copy of the HIV-1 LTR linked to the lac2 reporter gene after integration, inducing β-galactosidase expression when Xgal is added to the cell medium. Any cell with integrated HIV-1 will turn blue. Thus, this assay provides a convenient way to determine the effect of HIV inhibitors at any early step up through the expression of tat, including the inhibition of integration.
The magic cells are plated in twelve-well plates one day prior to infection. The standard assay involves infection with approximately 200 infectious units of HIV-1. This gives an approximately 20 to 1 ratio of signal to background and sufficient numbers of infectious events to quantitate dim effects. The cells are pretreated with drug for 4 hours prior to virus infection, and virus adsorption takes place for 1 hour. The cells are washed with plain medium, and then medium with inhibitor is placed back on the cells. Two days later the cells are fixed after integration with Xgal the indicator reagent for β-galactosidase production. The number of β-galactosidase expressing cells are quantitated by light microscopy.
The results of comparisons of infectious units with or without various concentrations of the bis-benzimididazoles drugs in the magic cell assay are expressed as IC50 values and are compiled in Table 2 above. Note that the best anti-HIV compounds were generally also the best integrase inhibitors.

N=C(N)c1ccc2nc(-c3cccc(-c4nc5ccc(C(=N)N)cc5[nH]4)c3)[nH]c2c1 [S-1]
CC50 (in vitro): 40 µM | pIC50 (HIV-1 integrase): 6.00

c1cc(-c2nc3cc(C4=NCCN4)ccc3[nH]2)cc(-c2nc3cc(C4=NCCN4)ccc3[nH]2)c1 [S-2]
pIC50 (HIV-1 integrase): < 5.00

CC(C)NC(=N)c1ccc2nc(-c3ccc4c(c3)Cc3cc(-c5nc6ccc(C(=N)NC(C)C)cc6[nH]5)ccc3-4)[nH]c2c1 [S-3]
pIC50 (HIV-1 integrase): > 5.00

CC(C)NC(=N)c1ccc2nc(-c3cnc(-c4nc5ccc(C(=N)NC(C)C)cc5[nH]4)o3)[nH]c2c1 [S-4]
pIC50 (HIV-1 integrase): > 5.00

N=C(N)c1ccc2nc(-c3ccc4oc(-c5nc6ccc(C(=N)N)cc6[nH]5)cc4c3)[nH]c2c1 [S-5]
pIC50 (HIV-1): 4.70 | pIC50 (HIV-1 integrase): > 5.00

N=C(NC1CCCC1)c1ccc2nc(-c3ccc4oc(-c5nc6ccc(C(=N)NC7CCCC7)cc6[nH]5)cc4c3)[nH]c2c1 [S-6]
pIC50 (HIV-1 integrase): 5.85

Cn1c(-c2nc3ccc(C(=N)N)cc3[nH]2)ccc1-c1nc2ccc(C(=N)N)cc2[nH]1 [S-7]
CC50 (in vitro): 90.3 µM | pIC50 (HIV-1 integrase): 6.07

N=C(N)c1ccc2nc(-c3ccc(-c4nc5ccc(C(=N)N)cc5[nH]4)[nH]3)[nH]c2c1 [S-8]
pIC50 (HIV-1 integrase): 6.30

c1cc2[nH]c(-c3ccc(-c4nc5cc(C6=NCCN6)ccc5[nH]4)[nH]3)nc2cc1C1=NCCN1 [S-9]
CC50 (in vitro): 213 µM | pIC50 (HIV-1 integrase): < 5.00

c1cnc(-c2ccc3nc(-c4ccc(-c5nc6ccc(-c7ncccn7)cc6[nH]5)[nH]4)[nH]c3c2)nc1 [S-10]
pIC50 (HIV-1 integrase): > 5.00

Cn1c(-c2nc3ccc(C(=N)NC4CCCC4)cc3[nH]2)ccc1-c1nc2ccc(C(=N)NC3CCCC3)cc2[nH]1 [S-11]
CC50 (in vitro): 732 µM | pIC50 (HIV-1 integrase): < 5.00

CC(C)NC(=N)c1ccc2nc(-c3ccc(-c4nc5ccc(C(=N)NC(C)C)cc5[nH]4)n3C)[nH]c2c1 [S-12]
CC50 (in vitro): 289 µM | pIC50 (HIV-1 integrase): > 5.00

N=C(NC1CCCC1)c1ccc2nc(-c3ccc(-c4nc5ccc(C(=N)NC6CCCC6)cc5[nH]4)[nH]3)[nH]c2c1 [S-13]
CC50 (in vitro): 78.2 µM | pIC50 (HIV-1 integrase): > 5.30

N=C(N)c1ccc2nc(-c3ccc(-c4nc5ccc(C(=N)N)cc5[nH]4)o3)[nH]c2c1 [S-14]
CC50 (in vitro): 81.5 µM | pIC50 (HIV-1): 4.57 | Index TD50/IC50 (HIV-1): 3.05 | pIC50 (HIV-1 integrase): 6.05

c1cc2nc(-c3ccc(-c4nc5ccc(C6=NCCN6)cc5[nH]4)o3)[nH]c2cc1C1=NCCN1 [S-15]
CC50 (in vitro): 41.9 µM | pIC50 (HIV-1): 5.10 | Index TD50/IC50 (HIV-1): 5.23 | pIC50 (HIV-1 integrase): 6.22

CC(C)NC(=N)c1ccc2nc(-c3ccc(-c4nc5ccc(C(=N)NC(C)C)cc5[nH]4)o3)[nH]c2c1 [S-16]
CC50 (in vitro): 238 µM | pIC50 (HIV-1): 5.86 | Index TD50/IC50 (HIV-1): 170.88 | pIC50 (HIV-1 integrase): > 5.00
